Test results: patent publication US11555212B2, “Process for the production of sulfated phenolic compounds using modified Escerichia coli” (CysBio ApS, priority 2016, dated 2023)

Tests used:
[1] = target: T1, SULT1A1 from Rattus norvegicus (Rattus norvegicus, UniProt P17988); assay: Percent reduction of phenolic compounds by E. coli KRX expressing a sulfotransferase; assay type: cell-based; conditions: M9, 0.1 mM IPTG, 0.1% rhamnose, compound 50 μM, overnight 37° C.
T1 construct: 1, 3, 4, 5, and 6 were cloned amplified from liver tissue cDNA; expressed in transfected cells
Description: M9 medium containing 0.2% glucose, 0.1 mM IPTG, 0.1% rhamnose, and 100 μg/mL ampicillin was prepared.
The strains described above were grown in 2×YT medium with 100 μg/mL ampicillin overnight before their were used to inoculate the media by 50-fold dilution. The cultures were grown overnight with vigorous shaking at 37° C. […] The compounds were detected by UV absorbance except for 4-methylbelliferone, which was measured by fluorescence.

[2] = target: T2, SULT1A1 from rat (Rattus norvegicus) (Rattus norvegicus, UniProt P17988); assay: Percent reduction in concentration of phenolic compounds by E. coli expressing a sulfotransferase, compared to control strain; assay type: cell-based; conditions: compared to the control strain, M9, 1 mM IPTG, single substrate at start concentration of Table 14, overnight 37° C.; for Percent reduction in concentration, SULT1A1 + CysDNCQ: E. coli BL21(DE3)pLysS expressing SULT1A1 rat + CysDNCQ; for Percent reduction in concentration, SULT1A1: E. coli BL21(DE3)pLysS expressing SULT1A1 rat
T2 construct: 1, 3, 4, 5, and 6 were cloned amplified from liver tissue cDNA; expressed in transfected cells
Description: (§1) The concentration of p-courmaric acid (pHCA) and zosteric acid in the supernatant was quantified by high performance liquid chromatography (HPLC) and compared to chemical standards. HPLC was done on a Thermo setup using a HS-F5 column and mobile phases: 5 mM ammonium formate pH 4.0 (A) and acetonitrile (B) at 1.5 mL min-1, using a gradient elution starting at 5% B. From 0.5 min after injection to 7 min, the fraction of B increased linearly from 5% to 60%, and between 9.5 min and 9.6 the fraction of B decreased back to 5%, and remaining there until 12 min. pHCA and zosteric acid were quantified by measuring absorbance at 277 nm.
To further test the range of substrates that can be sulfated, we used strains carrying plasmids expressing SULT1A1 from rat (Rattus norvegicus) and SULT1E1 from chicken (Gallus gallus domesticus) (Example 1) cloned into the expression vector pETDuet-1, and cysDNCQ from E. coli cloned into expression vector pRSFDuet-1 (Example 2). The plasmids were introduced into the E. coli expression strain BL21(DE3)pLysS as described previously, selecting for transformants with appropriate antibiotics, namely 34 μg mL^−1 chloramphenicol for pLysS, 100 μg mL^−1 ampicillin for pETDuet-1-based vectors, and 100 μg mL^−1 kanamycin for pRSFDuet-1-based vectors. […] A control strain without a sulfotransferase gene or cysDNCQ operon was also examined.
The strains were precultured in 2×YT medium with appropriate antibiotics. 10 μL of these precultures were used to inoculate M9 media with 1 mM IPTG and none or a single substrate for sulfation. After overnight growth at 37° C., 300 rpm the supernatants were withdrawn and examined by HPLC as described in Example 1. The compounds were detected by UV absorbance.

[3] = test system: SULT1E1 from chicken (Gallus gallus domesticus); assay: as above; assay type: cell-based; conditions: E. coli BL21(DE3)pLysS expressing SULT1E1 chicken, compared to the control strain; M9, 1 mM IPTG, single substrate at start concentration of Table 14; overnight 37° C.
[4] = target: T3, SULT1A1 Canis lupus familiaris (Canis lupus familiaris, UniProt Q29476); assay: Percent conversion of substrates by E. coli expressing a sulfotransferase; assay type: cell-based; conditions: E. coli BL21(DE3)pLysS expressing SULT1A1 Canis lupus familiaris; M9; pHCA 100 μM, resveratrol 95 μM or kaempferol 87 μM; overnight 37° C.
T3 construct: 1, 3, 4, 5, and 6 were cloned amplified from liver tissue cDNA; expressed in transfected cells; host or cells: E. coli BL21(DE3)pLysS
Description: as §1
(§2) Different sulfotransferases were examined for their substrate specificities against three substrates. We tested the sulfotransferases mentioned in example 1, as well as additional ones. The genes encoding these were cloned as described in example 1 using the primers shown in the table below from cDNA libraries of the respective organisms, except for the SULT1A1 from rat (Rattus norvegicus) codon-optimized for E. coli (described above). The resulting vectors were transformed into BL21(DE3)pLysS.
(§3) The resulting strains were grown in M9 medium containing either 100 μM pHCA, 95 μM resveratrol or 87 μM kaempferol. The cultures were grown overnight at 37° C., 300 rpm. The following day the supernatants were isolated and examined by HPLC as described in example 1.

[5] = test system: SULT1A1 Equus caballus; assay: as above; assay type: cell-based; conditions: E. coli BL21(DE3)pLysS expressing SULT1A1 Equus caballus; M9; pHCA 100 μM, resveratrol 95 μM or kaempferol 87 μM; overnight 37° C.
Description: as §1, §2, §3

[6] = target: T4, SULT1A1 Rattus norvegicus (Rattus norvegicus, UniProt P17988); assay: as above; assay type: cell-based; conditions: M9, pHCA 100 μM, resveratrol 95 μM or kaempferol 87 μM, overnight 37° C.
T4 construct: 1, 3, 4, 5, and 6 were cloned amplified from liver tissue cDNA; expressed in transfected cells
Description: as §1, §2, §3

[7] = test system: SULT1A1 Sus scrofa domesticus; assay: as above; assay type: cell-based; conditions: E. coli BL21(DE3)pLysS expressing SULT1A1 Sus scrofa domesticus; M9; pHCA 100 μM, resveratrol 95 μM or kaempferol 87 μM; overnight 37° C.
Description: as §1, §2, §3

[8] = target: T5, SULT1A1 human (Homo sapiens, UniProt P50225, V223M); assay: as above; assay type: cell-based; conditions: E. coli BL21(DE3)pLysS expressing SULT1A1 human; M9; pHCA 100 μM, resveratrol 95 μM or kaempferol 87 μM; overnight 37° C.
T5 construct: expressed in transfected cells; host or cells: E. coli BL21(DE3)pLysS
Description: as §1, §2, §3

[9] = test system: SULT1C1 Gallus gallus domesticus; assay: as above; assay type: cell-based; conditions: E. coli BL21(DE3)pLysS expressing SULT1C1 Gallus gallus domesticus; M9; pHCA 100 μM, resveratrol 95 μM or kaempferol 87 μM; overnight 37° C.
Description: as §1, §2, §3

[10] = test system: SULT1E1 Gallus gallus domesticus; assay: as above; assay type: cell-based; conditions: E. coli BL21(DE3)pLysS expressing SULT1E1 Gallus gallus domesticus; M9; pHCA 100 μM, resveratrol 95 μM or kaempferol 87 μM; overnight 37° C.
Description: as §1, §2, §3

[11] = test system: D. rerio SULT6B1; assay: Percent reduction of compounds by E. coli KRX expressing distantly related sulfotransferases; assay type: cell-based, Danio rerio; conditions: 100 μM resveratrol, 20 μM kaempferol or 3-hydroxy-4-methoxycinnamic acid
Description: The gene (sequence SEQ ID NO: 102) encoding SULT6B1 (sequence SEQ ID NO: 103) from Danio rerio was codon-optimized for E. coli and synthesized as in example 1.
(§4) The genes were cloned into the vector pETDuet-1 as described in Example 1, and the resulting vectors were transformed into E. coli KRX (obtained from Promega).

[12] = test system: H. ochraceum DSM 14365 Hoch_6098; assay: as above; assay type: cell-based, Haliangium ochraceum DSM 14365; conditions: E. coli KRX expressing H. ochraceum DSM 14365 Hoch_6098; 100 μM resveratrol, 20 μM kaempferol or 50 μL 3-hydroxy-4-methoxycinnamic acid
Description: The gene (sequence SEQ ID NO: 104) encoding Hoch_6098 (sequence SEQ ID NO: 105) from the bacterium Haliangium ochraceum DSM 14365 was codon-optimized for E. coli and synthesized as in example 1.
as §4

[13] = target: T6, D. rerio SULT1ST1 (Danio rerio, UniProt Q6PH37); assay: as above; assay type: cell-based; conditions: 100 μM resveratrol, 20 μM kaempferol or 3-hydroxy-4-methoxycinnamic acid
T6 construct: expressed in transfected cells; host or cells: E. coli KRX (Promega), vector pETDuet-1
T6 sequence (Q6PH37 1-299): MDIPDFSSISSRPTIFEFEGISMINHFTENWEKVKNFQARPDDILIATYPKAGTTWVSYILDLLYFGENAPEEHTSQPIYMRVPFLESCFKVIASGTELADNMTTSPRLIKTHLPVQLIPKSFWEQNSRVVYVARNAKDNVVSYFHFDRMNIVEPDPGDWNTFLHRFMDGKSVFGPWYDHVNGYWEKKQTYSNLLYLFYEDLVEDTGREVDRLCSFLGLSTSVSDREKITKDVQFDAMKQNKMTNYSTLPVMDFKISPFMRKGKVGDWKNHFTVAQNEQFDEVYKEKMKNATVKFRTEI

[14] = E. coli BL21(DE3)pLysS expressing SULT1A1 Rattus norvegicus (Codon-optimized for E. coli)
[15] = E. coli BL21(DE3)pLysS expressing SULT1A1 Rattus norvegicus

T2 sequence (P17988 whole entry): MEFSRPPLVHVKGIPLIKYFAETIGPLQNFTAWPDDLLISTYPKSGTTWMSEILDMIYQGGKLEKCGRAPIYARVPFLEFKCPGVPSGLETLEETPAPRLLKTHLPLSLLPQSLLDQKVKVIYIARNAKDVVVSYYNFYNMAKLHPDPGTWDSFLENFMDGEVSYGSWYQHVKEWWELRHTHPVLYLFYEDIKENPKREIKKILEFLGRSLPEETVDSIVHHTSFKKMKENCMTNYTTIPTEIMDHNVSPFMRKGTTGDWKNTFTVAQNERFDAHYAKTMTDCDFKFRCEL
T4 sequence (P17988 whole entry): as above
T1 sequence (P17988 whole entry): as above
T3 sequence (Q29476 whole entry): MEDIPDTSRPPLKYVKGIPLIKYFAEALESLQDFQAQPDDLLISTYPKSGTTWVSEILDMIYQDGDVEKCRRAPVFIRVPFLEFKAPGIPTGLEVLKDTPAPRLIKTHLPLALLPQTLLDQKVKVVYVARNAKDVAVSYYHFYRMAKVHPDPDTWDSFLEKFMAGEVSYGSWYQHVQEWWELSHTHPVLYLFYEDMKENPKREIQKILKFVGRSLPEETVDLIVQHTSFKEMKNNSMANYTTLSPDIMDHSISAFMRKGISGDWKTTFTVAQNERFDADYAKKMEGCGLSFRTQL
T5 sequence (P50225 whole entry V223M): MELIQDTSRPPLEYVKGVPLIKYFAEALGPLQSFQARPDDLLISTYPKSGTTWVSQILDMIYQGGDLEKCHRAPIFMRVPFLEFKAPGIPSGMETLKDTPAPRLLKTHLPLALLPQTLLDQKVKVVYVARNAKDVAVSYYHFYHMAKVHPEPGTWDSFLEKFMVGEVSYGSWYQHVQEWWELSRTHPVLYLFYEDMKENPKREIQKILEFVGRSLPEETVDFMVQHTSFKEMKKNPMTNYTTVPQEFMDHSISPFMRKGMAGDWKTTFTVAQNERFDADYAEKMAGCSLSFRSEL

Row | Compound | Percent reduction, SULT1A1 [1] | Percent reduction in concentration, SULT1A1 + CysDNCQ [2] | Percent reduction in concentration, SULT1A1 [2] | Percent reduction in concentration, SULT1E1 [3] | also measured
1 | 4-ethylguaiacol | 50% | – | – | – | –
2 | O=C(O)CCc1ccc(O)cc1 [3-(4-Hydroxyphenyl)propionic acid] | – | 7% | 3% | 1% | –
3 | COc1ccc(C=CC(=O)O)cc1O [3-Hydroxy-4-methoxycinnamic acid] | – | 62% | 51% | – | –
4 | O=C(O)C(=O)Cc1ccc(O)cc1 [4-Hydroxyphenylpyruvic acid, 4-hydroxyphenylpyruvic acid] | – | 64% | 47% | 100% | –
5 | CC(=O)Nc1ccc(O)cc1 [4-acetamidophenol, reference compound] | – | 30% | 24% | 10% | –
6 | CCc1ccc(O)cc1 [4-ethylphenol] | 100% | – | – | – | –
7 | O=C(O)c1ccc(O)cc1 [4-hydroxybenzoic acid] | – | 6% | 5% | 4% | –
8 | Cc1cc(=O)oc2cc(O)ccc12 [4-methylbelliferone] | 100% | – | – | – | –
9 | O=[N+]([O-])c1ccc(O)cc1 [4-nitrophenol] | 30% | – | – | – | –
10 | C=Cc1ccc(O)cc1 [4-vinylphenol] | 100% | – | – | – | –
11 | O=c1cc(-c2ccc(O)cc2)oc2cc(O)cc(O)c12 [Apigenin] | – | 99% | 41% | 98% | –
12 | COc1cc(/C=C/C(=O)O)ccc1O [Ferulic acid, ferulic acid] | – | 100% | 72% | 67% | –
13 | O=c1cc(-c2ccc(O)c(O)c2)oc2cc(O)cc(O)c12 [Luteolin] | – | 37% | 27% | 0% | –
14 | O=C1C[C@@H](c2ccc(O)cc2)Oc2cc(O)cc(O)c21 [Naringenin] | 60% | – | – | – | –
15 | O=c1c(O)c(-c2ccc(O)c(O)c2)oc2cc(O)cc(O)c12 [Quercetin] | – | 81% | 75% | 74% | –
16 | COc1cc(/C=C/C(=O)O)cc(OC)c1O [Sinapic acid, sinapic acid] | 31% | – | – | – | –
17 | COc1cc(C(=O)O)ccc1O [Vanillic acid, vanillic acid] | – | 39% | 33% | 0% | –
18 | O=c1c(O)c(-c2ccc(O)c(O)c2)oc2cc(O)ccc12 [fisetin] | – | 100% | 98% | 98% | –
19 | O=c1c(O)c(-c2ccc(O)cc2)oc2cc(O)cc(O)c12 [kaempferol, Kaempferol] | – | – | – | – | Percent conversion of the substrate [4]: 60%; Percent conversion of the substrate [5]: 96%; Percent conversion of the substrate [6, 14]: 38%; Percent conversion of the substrate [6, 15]: 95%; Percent conversion of the substrate [7]: 45%; Percent conversion of the substrate [8]: 97%; Percent conversion of the substrate [9]: 80%; Percent conversion of the substrate [10]: 47%; Percent reduction [11]: 44%; Percent reduction [12]: 100%
20 | Oc1ccc(C=Cc2cc(O)cc(O)c2)cc1 [resveratrol] | – | – | – | – | Percent conversion of the substrate [4]: 61%; Percent conversion of the substrate [5]: 100%; Percent conversion of the substrate [6, 14]: 58%; Percent conversion of the substrate [6, 15]: 93%; Percent conversion of the substrate [7]: 88%; Percent conversion of the substrate [8]: 36%; Percent conversion of the substrate [9]: 100%; Percent conversion of the substrate [10]: 100%; Percent reduction [13]: 80%; Percent reduction [12]: 7%
